{
  "source": "patent US20230337668A1",
  "about": "“COMPOSITION” (GIVAUDAN SA, priority 2020, published 2023)",
  "tested_on": "Bacillus subtillis",
  "test": "microorganisms counting in inoculated fish matrix (fish model)",
  "details": "D14, 25° C., positive control at 0.3%, average of two determinations",
  "experimental": "Fish matrix was made of fish and water (50/50), without preservatives. The matrix was homogenized in a blade mixer grinder and then sterilized at 121° C. for 20 minutes, prior the tests.\nBlends were added at 0.5 % into the matrix. Matrices without preservatives (0.5 % of NaCl 0.9%) and matrices with conventional chemical preservatives (0.3% of sodium lactate or potassium nitrite, separately) were used as negative and positive control, respectively.\nEach matrix type was portioned into sterile flasks and inoculated with 3 Log CFU/g of different microorganisms, separately. Each flask corresponds to one sample at a given date of analysis.\nThe inoculated matrices were incubated at 25° C.\nThe counting of the microorganisms was determined in specific agar medium.",
  "data": [
    {"smiles": "CC(O)C(=O)[O-].[Na+]", "note": "(stereo not shown) [Sodium lactate]", "values": [
      {"measurement": "Bacillus subtillis spores (Bacillus subtillis totaux - Bacillus subtillis vegetative cells)", "value": 2.35, "unit": "Log CFU/g"},
      {"measurement": "Bacillus subtillis totaux (vegetative cells + spores)", "value": 2.90, "unit": "Log CFU/g"}
    ]},
    {"smiles": "O=N[O-].[K+]", "note": "[Potassium nitrite]", "values": [
      {"measurement": "Bacillus subtillis spores (Bacillus subtillis totaux - Bacillus subtillis vegetative cells)", "value": 2.39, "unit": "Log CFU/g"},
      {"measurement": "Bacillus subtillis totaux (vegetative cells + spores)", "value": 2.60, "unit": "Log CFU/g"}
    ]}
  ]
}
